Laboratory results from US20160002733A1, “ASSESSING RISK FOR ENCEPHALOPATHY INDUCED BY 5-FLUOROURACIL OR CAPECITABINE” (THE BOARD OF TRUSTEES OF THE LELAND STANFORD JUNIOR …, priority 2013, published 2016).
Where “and” joins values, the source holds several entries; their conditions need not be identical. Equal entries are not always repeated. Where two headings read alike, the source gives them in different places.

What was measured:
[1] = Valproic acid trough levels in Patient 2; type: in vivo, human; conditions: within therapeutic range
Protocol: (§1) After 1 day, the infusion 5-FU was held because of diarrhea from C. difficile, which was treated with metronidazole. Two days later, the infusion was resumed. On the third infusion day, the patient developed slurred speech and gait ataxia. On the fifth infusion day, they became delirious and then comatose. MRI and CT scan of the brain, and lumbar puncture were normal. Valproic acid trough levels ([…]) were within therapeutic range, which is sufficient to inhibit N-acetylglutamate synthase (FIG. 1A) and disrupt the urea cycle (11, 12). Despite multiple episodes of diarrhea and a delay of 10 hours following discontinuation of infusion 5-FU, plasma ammonia was elevated at 37 μmol/L. The next day, the patient was alert, and plasma ammonia was 16 μmol/L. The tumor had decreased markedly in size, no longer preventing them from turning their head.

[2] = type: in vivo, human; conditions: for plasma ammonia: male
Protocol: (§2) Plasma ammonia levels were obtained at Stanford University Medical Center, which followed a strict protocol of immediately placing the blood sample on ice, and then analyzing the sample within 15 minutes. Samples not placed on ice, or analyzed after a longer delay yield artificially elevated plasma ammonia levels due to release of ammonia from erythrocytes and deamination of plasma amino acids (52, 53).
A person with gastric adenocarcinoma underwent subtotal gastrectomy and Roux-en-Y gastrojejunostomy, followed by two cycles of adjuvant carboplatin and capecitabine (1000 mg/m^2 twice a day for 14 days), and then 50 Gy of radiation therapy to the tumor bed with concurrent capecitabine (1000 mg/m^2 twice a day). During each course of capecitabine, they experienced extreme lethargy, without mucositis, diarrhea or hand-foot syndrome.
On the third cycle of carboplatin and capecitabine, self-administered folate 1 mg/d hoping to prevent lethargy. From days 5 to 14 of capecitabine, they became increasingly confused, and then combative and ataxic. Two days after the last capecitabine dose, they were taken to local emergency room for delirium and found to have a normal CT scan of the brain.
After discontinuation of lactulose on discharge from the hospital, plasma ammonia gradually rose and then returned to normal over two months (FIG. 2A). Four months after discharge, mild liver steatosis was noted on CT scan for the first time.
A person with newly diagnosed squamous cell carcinoma of the left tonsil and base of tongue began treatment with docetaxel and cisplatin, followed by a planned 5-day infusion of 5-FU (750 mg/m^2). Past medical history included manic depression treated with valproic acid.
as §1
A person with a well-differentiated neuroendocrine tumor of unknown primary began treatment with capecitabine (days 1-14) and temozolomide (days 10-14) after progression of massive liver metastases. […]

[3] = Prospective measurement of plasma ammonia levels in patients treated with capecitabine; type: in vivo, human
Protocol: Prospective Measurement of Plasma Ammonia Levels in Patients Treated with Capecitabine
Patients donated whole blood for analysis after providing consent according to a protocol approved by the Stanford University Administrative Panel for the Protection of Human Subjects.
as §2, with “53). […]” for “53).”
Mid-cycle levels were measured after patients had taken capecitabine for 7 to 14 days. […]
To prospectively measure plasma ammonia after capecitabine, we prospectively studied 29 cancer patients (Table 3). […] To estimate baseline plasma ammonia levels, we measured 2 or more levels before the first capecitabine dose or at least 7 days after the previous capecitabine dose.
We monitored changes in cognitive function between baseline and mid-cycle time points with two instruments: a telephone-administered mini-mental status examination, and a patient self-administered questionnaire. […]

[4] = high dose continuous infusion 5-FU; sixteen of 280 patients; cited from earlier work

**Q.** With `CCCC(CCC)C(=O)O` [Valproic acid, valproic acid] as the compound, how does the Valproic acid trough levels [1] read?
**A.** Its Valproic acid trough levels is 45 µg/mL and 68 µg/mL.

**Q.** For `OC[C@H]1O[C@@H](O[C@@H]2[C@@H](CO)OC(O)(CO)[C@H]2O)[C@H](O)[C@@H](O)[C@H]1O` (mixture of isomers) [lactulose], which “plasma ammonia with lactulose treatment” value ([2]; Patient 1 (index case), declined from 158 μmol/L, symptoms resolved) is on record?
**A.** Its value is 29 µmol/L.

**Q.** With `CCCCCOC(=O)Nc1nc(=O)n(C2OC(C)C(O)C2O)cc1F` (centres unmarked) [capecitabine, pentyl[1-(3,4-dihydroxy-5-methyltetrahydrofuran-2-yl)-5-fluoro-2-oxo-1H-pyrimidin-4-yl]carbamate] as the compound, how does the plasma ammonia level ([2]; female, human, in vivo, 7 days after the last capecitabine dose) read?
**A.** The plasma ammonia level was 158 µmol/L.

**Q.** What about the plasma ammonia ([2]; human, in vivo, 7 days after discontinuing capecitabine) of the same compound?
**A.** The plasma ammonia was 54 µmol/L.

**Q.** What about the “patients with mid-cycle plasma ammonia levels increased above baseline levels” value ([3]; 29 cancer patients, mid-cycle after 7 to 14 days of capecitabine, by more than 3 or 4 standard deviations (p<0.01 or p<0.001)) of the same compound?
**A.** Its value is 5 of the 29.

**Q.** What about the “patients with clinically significant symptoms among those with increased mid-cycle ammonia levels” value ([3]; of the 5 patients with increased mid-cycle ammonia, cognitive dysfunction, malaise, fatigue, unsteady gait) of the same compound?
**A.** The value was 2 of the 5.

**Q.** With `O=c1[nH]cc(F)c(=O)[nH]1` [5-FU, 5-fluorouracil] as the compound, how does the “patients who suffered encephalopathy with hyperammonemia” value [4] read?
**A.** Its value is 5.7%.

**Q.** And the plasma ammonia ([2]; human, in vivo)?
**A.** Its plasma ammonia is 16 µmol/L.
